According to ChEMBL document CHEMBL4219207, “Reversible, orally available ADP receptor (P2Y12) antagonists Part I: Hit to lead process” (Bioorg Med Chem Lett, 2018):

What was measured:
P2Y purinoceptor 12 [1] = molecular target: T1, P2Y purinoceptor 12 (Homo sapiens, UniProt Q9H244); test: Displacement of [3H]2MeSADP from P2Y12 receptor in human platelets after 60 mins by TopCount scintillation counting method
[2] = Cmax in Sprague-Dawley rat at 2 mg/kg, po via gavage; format: ADME, organism-based; set-up: dose 2 mg/kg, route oral; conditions: in vivo
[3] = Oral bioavailability in Sprague-Dawley rat at 2 mg/kg via gavage; format: ADME, organism-based; conditions: in vivo
[4] = Plasma concentration in Sprague-Dawley rat at 2 mg/kg, po via gavage after 1 hr using sample obtained from jugular vein; format: ADME, organism-based
P2Y purinoceptor 12 [5] = molecular target: T1, P2Y purinoceptor 12; test: Competitive/reversible antagonist activity at P2Y12 receptor in platelets (unknown origin) assessed as inhibition of ADP-induced platelet aggregation; format: functional
[6] = Metabolic stability in human liver microsomes assessed as parent compound remaining at 3000 nM; format: ADME, microsome; conditions: read-out: Stability
[7] = Metabolic stability in rat liver microsomes assessed as parent compound remaining at 3000 nM; format: ADME, microsome; conditions: read-out: Stability
[8] = Metabolic stability in dog liver microsomes assessed as parent compound remaining at 3000 nM; format: ADME, Canis lupus familiaris, microsome; conditions: read-out: Stability
[9] = Plasma concentration in Sprague-Dawley rat at 2 mg/kg, po via gavage after 3 hrs using sample obtained from jugular vein; format: ADME, organism-based
[10] = Plasma concentration in Sprague-Dawley rat at 2 mg/kg, po via gavage after 1 hr using sample obtained from portal vein; format: ADME, organism-based
[11] = Plasma concentration in Sprague-Dawley rat at 2 mg/kg, po via gavage after 3 hrs using sample obtained from portal vein; format: ADME, organism-based
[12] = Half life in Sprague-Dawley rat at 2 mg/kg, po via gavage; format: ADME, organism-based; conditions: in vivo
[13] = Permeability in human Caco2 cells; format: ADME, cell-based; conditions: Caco-2, read-out: permeability

T1 sequence (Q9H244 whole entry): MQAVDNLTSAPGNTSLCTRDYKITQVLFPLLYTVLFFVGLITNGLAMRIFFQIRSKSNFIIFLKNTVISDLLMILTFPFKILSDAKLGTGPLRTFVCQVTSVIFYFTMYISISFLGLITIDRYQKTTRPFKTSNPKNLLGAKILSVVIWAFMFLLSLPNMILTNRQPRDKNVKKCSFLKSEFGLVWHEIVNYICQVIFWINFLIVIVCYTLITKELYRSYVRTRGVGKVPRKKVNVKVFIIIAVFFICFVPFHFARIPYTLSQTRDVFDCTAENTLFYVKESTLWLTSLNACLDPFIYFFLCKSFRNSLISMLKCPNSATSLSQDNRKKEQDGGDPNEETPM

SMILES	IC50 (P2Y purinoceptor 12 [1]) [nM]	also measured
CCOC(=O)N1CCN(C(=O)[C@H](Cc2c[nH]c3ccccc23)NC(=O)c2cc(OC)c3ccccc3n2)CC1	7900	–
CCOC(=O)N1CCN(C(=O)CNC(=O)c2cc(O)c3ccccc3n2)CC1	> 2000	–
CCOC(=O)N1CCN(C(=O)CNC(=O)c2cc(OCC)c3ccccc3n2)CC1	840	–
CCOC(=O)N1CCN(C(=O)CNC(=O)c2cc(OC)c3ccccc3n2)[C@@H](C)C1	1100	–
CCOC(=O)N1CCN(C(=O)CNC(=O)c2cc(OC)c3ccccc3n2)C[C@@H]1C	1700	–
CCOC(=O)N1CCN(C(=O)CNC(=O)c2cc(OCc3ccccc3)c3ccccc3n2)CC1	> 3000	–
COc1cc(C(=O)NCC(=O)N2CCN(C(=O)NC(C)(C)C)CC2)nc2ccccc12	910	–
CCOC(=O)N1CCN(C(=O)CN(C)C(=O)c2cc(OC)c3ccccc3n2)CC1	21000	–
COC(=O)N1CCN(C(=O)CNC(=O)c2cc(OC)c3ccccc3n2)CC1	> 3000	–
CCCCCC(=O)N1CCN(C(=O)CNC(=O)c2cc(OC)c3ccccc3n2)CC1	1200	–
CCOC(=O)N1CCN(C(=O)CNC(=O)c2ccc3ccccc3c2)CC1	1800	Cmax [2]: 1500 nM
CCOC(=O)N1CCN(C(=O)CNC(=O)C=C2c3ccccc3-c3ccccc32)CC1	860	Cmax [2]: 2700 nM
CCCOc1cc(C(=O)NCC(=O)N2CCN(C(=O)OCC)CC2)nc2ccccc12	520	–
CCc1ccc(C(=O)N2CCN(C(=O)CNC(=O)c3cc(OC)c4ccccc4n3)CC2)cc1	1800	–
CCOC(=O)N1CCN(C(=O)CNC(=O)c2cc(OC)c3ccccc3n2)[C@H](C)C1	4500	–
COc1cc(C(=O)NCC(=O)N2CCN(c3cccc(C)c3)CC2)nc2ccccc12	890	–
CCOC(=O)N1CCN(C(=O)CNC(=O)c2cc(OC)c3ccccc3n2)C[C@H]1C	4300	–

Continued, in another order:

IC50 (P2Y purinoceptor 12 [1]) [nM]	SMILES	also measured
8600	CCOC(=O)N1CCN(C(=O)[C@H](Cc2ccccc2)NC(=O)c2cc(OC)c3ccccc3n2)CC1	–
14000	CCOC(=O)N1CCN(C(=O)[C@@H](C)NC(=O)c2cc(OC)c3ccccc3n2)CC1	–
690	CCOC(=O)N1CCN(C(=O)CNC(=O)c2cc(OC)c3ccccc3n2)CC1	Cmax [2]: 1200 nM; bioavailability [3]: 42%
1100	CCOC(=O)N1CCN(C(=O)[C@H](CC(=O)NCC(=O)O)NC(=O)c2cc(OC)c3ccccc3n2)CC1	–
1900	CCOC(=O)N1CCN(C(=O)[C@H](C)NC(=O)c2cc(OC)c3ccccc3n2)CC1	–
2500	CCOC(=O)N1CCN(C(=O)[C@H](CCC(N)=O)NC(=O)c2cc(OC)c3ccccc3n2)CC1	–
2100	CCOC(=O)N1CCN(C(=O)[C@H](CC(N)=O)NC(=O)c2cc(OC)c3ccccc3n2)CC1	–
200	CCOC(=O)N1CCN(C(=O)[C@H](COCC(=O)O)NC(=O)c2cc(OC)c3ccccc3n2)CC1	–
190	CCOC(=O)N1CCN(C(=O)[C@@H](CSCC(=O)O)NC(=O)c2cc(OC)c3ccccc3n2)CC1	–
18000	CCOC(=O)N1CCN(C(=O)[C@@H](CC(=O)O)NC(=O)c2cc(OC)c3ccccc3n2)CC1	–
270	CCOC(=O)N1CCN(C(=O)[C@H](CCCC(=O)O)NC(=O)c2cc(OC)c3ccccc3n2)CC1	–
86	CCOC(=O)N1CCN(C(=O)[C@H](CCC(=O)O)NC(=O)c2cc(OC)c3ccccc3n2)CC1	concentration at 1 h [4]: 120 nM; Cmax [2]: 120 nM; Kb (P2Y purinoceptor 12 [5]): 94 nM; remaining at 3 µM [6]: > 90%; remaining at 3 µM [7]: > 90%; remaining at 3 µM [8]: > 90%; concentration at 3 h [9]: 100 nM; concentration at 1 h [10]: 340 nM; concentration at 3 h [11]: 340 nM; half-life [12]: 1.2 h; Papp [13]: 0.166 ×10⁻⁶ cm/s
1100	CCOC(=O)N1CCN(C(=O)[C@H](CO)NC(=O)c2cc(OC)c3ccccc3n2)CC1	–
26000	CCOC(=O)N1CCN(C(=O)[C@H](CCCCN)NC(=O)c2cc(OC)c3ccccc3n2)CC1	–
150	CCOC(=O)N1CCN(C(=O)[C@H](CC(=O)O)NC(=O)c2cc(OC)c3ccccc3n2)CC1	concentration at 1 h [4]: 270 nM; concentration at 3 h [9]: 200 nM; concentration at 1 h [10]: 410 nM; concentration at 3 h [11]: 380 nM
22000	CCOC(=O)N1CCN(C(=O)[C@@H](CCC(=O)O)NC(=O)c2cc(OC)c3ccccc3n2)CC1	–
1500	CCOC(=O)N1CCN(C(=O)[C@H](Cc2cnc[nH]2)NC(=O)c2cc(OC)c3ccccc3n2)CC1	–
1500	CCOC(=O)N1CCN(C(=O)[C@@H](NC(=O)c2cc(OC)c3ccccc3n2)C(C)C)CC1	–
